Experimental data reported in patent US20140127194A1, “COMBINED PHARMACEUTICAL COMPOSITIONS FOR THE TREATMENT OF TUMORS” (HYD Rákkutató és Gyógyszerfejlesztö Kft., priority 2011, published 2014).

How the values were obtained:
[1] = tested on: prostate cancer with bone metastasis; test: Prostate cancer case reports: PSA tumor marker and remission versus DDW consumption; assay type: in vivo, human; details: patient, PSA over 1000 ng/mL, before start of DDW
Experimental: FIG. 1: Data of a patient with prostate cancer and bone metastasis, with extremely high PSA level (1000 ng/mL). Beside conventional treatment, DDW was also applied. In spite of the potentially bad prognosis the patient remained in regression for 9 years. PSA level: left Y axis and broken line; DDW dose: right Y axis and solid line.
FIG. 2: patient with prostate cancer and extreme PSA levels. […] Interrupting the DDW cure caused increasing PSA levels, and after finishing DDW consumption in December 2009 PSA was soaring. Broken line: PSA level, solid line: DDW dose.
Patient 2 (FIG. 1) had bone metastasis in the early phase of the disease, PSA was over 1000 ng/mL. […] They started consuming DDW in April 2003, 640 days (=21.3 months) after diagnosing bone metastasis with 15.0 ng/mL PSA. They consumed DDW for nearly one year at DdU of 1.0. A break of 6 months followed this cure, during which the disease progressed and PSA increased from 1 to 4.34 ng/mL. A new DDW cure brought regression and PSA below 1 ng/mL. 4 years after diagnosis, Androcure was replaced with Suprefact. Further DDW treatments (see FIG. 1 for DdU values) PSA was decreased in the following 3 years and the patient had no complaints in spite of the existing bone metastasis and the generally bad prognosis. […]

[2] = tested on: chronic myeloid leukemia (CML); test: Case report: chronic myeloid leukemia patient, DDW with Litaril, then STI 571 (Gleevec); assay type: in vivo, human
Experimental: b/ In a young patient in 1998, chronic myeloid leukemia (CML) was diagnosed, and was medicated with Litaril because of high WBC count. […] In February 2001 the patient was enrolled in the clinical trial of the drug candidate STI 571 (Gleevec). By August 2001, bone marrow damage decreased to 66% from the previous 80%.
(§1) DdU units used in the treatment were determined as described in Example 1 and 2.

[3] = tested on: kidney tumor; test: Case report: kidney tumor patient, Sutent with and without DDW; assay type: in vivo, human
Experimental: c/ With another tyrosine kinase inhibiting agent, Sutent, a similar positive interaction was found. In one patient, kidney tumor was diagnosed in spring 2003 and was surgically removed. Up to spring 2006, three further operations were necessary because of the disease recidivating.
as §1

[4] = tested on: breast cancer; details: Taxotere without DDW, general experience; cited from earlier work
[5] = tested on: HT199 melanoma cell line; test: In vitro growth of melanoma cells with DDW, doxorubicin and their combination; assay type: cell-based; details: 450 and 900 nM in normal (150 ppm D) medium
Experimental: Curves 4 and 6 show the inhibition by DDW plus the mentioned two concentrations of doxorubicin.
In the experiment, the effect of DDW, doxorubicin, and their combination was tested on HT199 melanoma cell line.

SMILES: CC(=O)O[C@]1(C(C)=O)CC[C@H]2[C@@H]3C=C(Cl)C4=CC(=O)[C@@H]5C[C@@H]5[C@]4(C)[C@H]3CC[C@@]21C [Androcure]
- PSA change [1]: PSA was rapidly lowered

SMILES: C[C@]12CC[C@@H]3c4ccc(OC(=O)N(CCCl)CCCl)cc4CC[C@H]3[C@@H]1CC[C@@H]2OP(=O)(O)O [Estracyt]
- PSA change [1]: PSA was rapidly lowered

SMILES: Cc1ccc(NC(=O)c2ccc(CN3CCN(C)CC3)cc2)cc1Nc1nccc(-c2cccnc2)n1 [STI 571]
- disease status ([2]; one CML patient consuming DDW and on STI 571, April 2002): fully negative
- bone marrow damage ([2]; one CML patient consuming DDW, STI 571 from February 2001, by August 2001, previously 80%): 66%

SMILES: CCN(CC)CCNC(=O)c1c(C)[nH]c(/C=C2\C(=O)Nc3ccc(F)cc32)c1C [Sutent]
- tumor response ([3]; one kidney tumor patient, Sutent without DDW, progression again in March 2007): efficient initially
- tumor response ([3]; same patient, DDW in parallel with Sutent from autumn 2007): the tumors shrank again
- tumor response on images ([3]; same patient, DDW in parallel with Sutent, three years later): ongoing decrease of the tumor sizes

SMILES: CC(=O)O[C@@]12CO[C@@H]1C[C@H](O)[C@@]1(C)C(=O)[C@H](O)C3=C(C)[C@@H](OC(=O)[C@H](O)[C@@H](NC(=O)OC(C)(C)C)c4ccccc4)C[C@@](O)([C@@H](OC(=O)c4ccccc4)[C@H]21)C3(C)C [Taxotere, docetaxel]
- MST [4]: 20-22 months

SMILES: COc1cccc2c1C(=O)c1c(O)c3c(c(O)c1C2=O)C[C@@](O)(C(=O)CO)C[C@@H]3O[C@H]1C[C@H](N)[C@H](O)[C@H](C)O1 [doxorubicin]
- effect on growth of melanoma cells [5]: inhibitory effect
